Measurements as given in patent EP0345906B1, “Unique elastase induced fibrinogen cleavage site antigens” (MERCK & CO. INC., priority 1988, dated 1989).

Key:
whole human blood = test: In vitro production of Aα 17-21 epitope containing peptide in human blood, other membrane perturbators with cytochalasin B; assay type: cell-based; conditions: 5 mg/ml cytochalasin B
Method: Other known membrane perturbators have been used to evaluate the in vitro production of the epitope containing cleavage peptide Aα 17-21 in human blood. Aliquots of freshly-drawn heparinized whole blood were incubated for 25 minutes at 37°C in the presence of either 5 mg/ml cytochalasin B and concentrations of phorbol-12-myristate-13-acetate (PMA) ranging up to 20 mM or in the presence of the combination of 5 mg/ml cytochalasin B and concentrations of n-formyl-L-norleucyl-L-leucyl-L-phenylalanine (FNLP) ranging up to 20 mM. Plasma was collected, prepared and assayed as described above.

leukocyte elastase = test: Ionophore-induced peptide production in blood drawn from an elastase inhibitor-treated chimpanzee; assay type: in vivo
Method: In vivo inhibition of fibrinogen cleavage products following treatment of primates with an elastase inhibitor is evaluated. Blood or fluid samples are collected both before and after treatment with either an elastase inhibitor or saline. Each heparinized blood sample is divided into about 4 aliquots (about 1 ml) and processed as described above. Treatment of an animal with an elastase inhibitor causes a marked reduction in the amount of elastase cleavage product produced.
Two chimpanzees were anesthetized and fitted with venous catheters for the collection of blood. Blood was collected from each animal at intervals over a 60 minute period prior to the administration of the elastase inhibitor. All blood samples were collected in heparin. After the initial 60 minute period one animal was given an intravenous injection of 10 mg/kg of the elastase inhibitor compound 1 while the other animal received an equivalent volume of normal saline. Additional heparinized blood samples were taken from both animals at regular intervals over the next 60 minutes. Each freshly-drawn sample of whole heparinized chimpanzee blood was divided into 4 aliquots. Calcium ionophore A23187 was added at a final concentration of 150 mM to two of the aliquots and an equivalent volume of the DMSO vehicle was added to the other two. All blood samples were incubated at 37° for 25 minutes, plasma collected and assayed as described above.
Elastase inhibitor was infused into the treated animal at time 0.

human leukocyte elastase = target: T1, human leukocyte elastase (Homo sapiens, UniProt P08246); test: Elastase inhibitor activity assay: A23187-stimulated fibrinogen cleavage peptide production in whole human blood; assay type: cell-based; conditions: A23187 150 mM
T1 construct: exposure of whole human blood to calcium ionophore A23187 results in elastase cleavage product by allowing the release of neutrophil elastase; endogenous in cells; host or cells: leukocytes (neutrophils) in freshly drawn heparinized whole human blood, stimulated with A23187
T1 sequence (P08246 30-267): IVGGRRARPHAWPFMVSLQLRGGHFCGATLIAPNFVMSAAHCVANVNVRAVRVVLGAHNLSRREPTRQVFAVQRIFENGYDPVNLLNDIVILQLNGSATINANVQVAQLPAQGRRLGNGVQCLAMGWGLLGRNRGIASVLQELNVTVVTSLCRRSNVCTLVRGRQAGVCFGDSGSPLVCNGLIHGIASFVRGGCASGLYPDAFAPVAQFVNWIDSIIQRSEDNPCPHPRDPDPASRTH
Method: The above defined assay technology is used to monitor the activity of human elastase inhibitors on human leukocyte elastase activity in human and primate blood. […] Replicate aliquots of freshly-drawn heparinized whole human blood are prepared with concentrations of elastase inhibitor ranging up to about 300 mg/ml. Following a brief pre-incubation with the inhibitor, a membrane perturbator, such as calcium ionophore A23187, is added at a concentration of between about 75 mM and about 300 mM. Non-membrane perturbator controls containing blood and perturbator-only controls are included to measure the extent of uninhibited peptide generation. All assay samples are incubated at about 37°C for about 25 minutes. The plasma is then prepared and assayed for fibrinogen cleavage products as described above.
The effect of the elastase inhibitor 3-Acetoxymethyl-1a-methoxy-6-oxo-5-thia-1-azabicyclo[4.2.0]oct-2-ene-2-(2-(S)-carboxypyrrolidinecarboxamide)5,5-dioxide (compound 1) on the calcium ionophore A23187-induced fibrinogen cleavage peptide production was evaluated. Replicate 2 ml aliquots of freshly-drawn heparinized whole human blood were prepared with concentrations of compound 1 ranging up to […]. Following a brief pre-incubation of 5 minutes at 37°C, calcium ionophore A23187 was added to a final concentration of 150 mM. Non-ionophore containing blood and ionophore-only (no inhibitor) controls were included to measure the extent of uninhibited peptide generation. All aliquots were incubated at 37°C for 25 minutes, the plasma collected, processed and assayed for fibrinogen cleavage peptide as described above.

n-formyl-L-norleucyl-L-leucyl-L-phenylalanine [FNLP]
Aα 17-21 Epitope Containing Peptide Produced (picomoles/ml plasma) (whole human blood; FNLP 0.001 mMolar, 25 minutes at 37°C): 0.0 picomoles/ml plasma | Aα 17-21 Epitope Containing Peptide Produced (picomoles/ml plasma) (whole human blood; FNLP 0.003 mMolar): 0.0 picomoles/ml plasma | Aα 17-21 Epitope Containing Peptide Produced (picomoles/ml plasma) (whole human blood; FNLP 0.010 mMolar): 0.0 picomoles/ml plasma | Aα 17-21 Epitope Containing Peptide Produced (picomoles/ml plasma) (whole human blood; FNLP 0.03 mMolar): 0.4 picomoles/ml plasma | Aα 17-21 Epitope Containing Peptide Produced (picomoles/ml plasma) (whole human blood; FNLP 0.1 mMolar): 0.9 picomoles/ml plasma | Aα 17-21 Epitope Containing Peptide Produced (picomoles/ml plasma) (whole human blood; FNLP 0.3 mMolar): 1.1 picomoles/ml plasma | Aα 17-21 Epitope Containing Peptide Produced (picomoles/ml plasma) (whole human blood; FNLP 1.0 mMolar): 1.1 picomoles/ml plasma | Aα 17-21 Epitope Containing Peptide Produced (picomoles/ml plasma) (whole human blood; FNLP 3.0 mMolar): 1.3 picomoles/ml plasma | Aα 17-21 Epitope Containing Peptide Produced (picomoles/ml plasma) (whole human blood; FNLP 10.0 mMolar): 1.2 picomoles/ml plasma | Aα 17-21 Epitope Containing Peptide Produced (picomoles/ml plasma) (whole human blood; FNLP 20.0 mMolar): 1.3 picomoles/ml plasma

COC1C(=O)N2C(C(=O)N3CCCC3C(=O)O)=C(COC(C)=O)CS(=O)(=O)C12 [compound 1, 3-Acetoxymethyl-1a-methoxy-6-oxo-5-thia-1-azabicyclo[4.2.0]oct-2-ene-2-(2-(S)-carboxypyrrolidinecarboxamide)5,5-dioxide]
A 1-21 Peptide Produced (picomoles/ml plasma) Treated (leukocyte elastase; Time 1.0 min after intravenous injection of 10 mg/kg, blood stimulated with A23187 150 mM): 1.10 picomoles/ml plasma | A 1-21 Peptide Produced (picomoles/ml plasma) Treated (leukocyte elastase; Time 2.5 min after intravenous 10 mg/kg): 1.30 picomoles/ml plasma | A 1-21 Peptide Produced (picomoles/ml plasma) Treated (leukocyte elastase; Time 5.0 min after intravenous 10 mg/kg): 1.60 picomoles/ml plasma | A 1-21 Peptide Produced (picomoles/ml plasma) Treated (leukocyte elastase; Time 7.5 min after intravenous 10 mg/kg): 2.00 picomoles/ml plasma | A 1-21 Peptide Produced (picomoles/ml plasma) Treated (leukocyte elastase; Time 10.0 min after intravenous 10 mg/kg): 1.80 picomoles/ml plasma | A 1-21 Peptide Produced (picomoles/ml plasma) Treated (leukocyte elastase; Time 12.5 min after intravenous 10 mg/kg): 1.70 picomoles/ml plasma | A 1-21 Peptide Produced (picomoles/ml plasma) Treated (leukocyte elastase; Time 15.0 min after intravenous 10 mg/kg): 0.98 picomoles/ml plasma | A 1-21 Peptide Produced (picomoles/ml plasma) Treated (leukocyte elastase; Time 20.0 min after intravenous 10 mg/kg): 1.90 picomoles/ml plasma | A 1-21 Peptide Produced (picomoles/ml plasma) Treated (leukocyte elastase; Time 30.0 min after intravenous 10 mg/kg): 2.20 picomoles/ml plasma | A 1-21 Peptide Produced (picomoles/ml plasma) Treated (leukocyte elastase; Time 40.0 min after intravenous 10 mg/kg): 3.10 picomoles/ml plasma | A 1-21 Peptide Produced (picomoles/ml plasma) Treated (leukocyte elastase; Time 50.0 min after intravenous 10 mg/kg): 2.60 picomoles/ml plasma | A 1-21 Peptide Produced (picomoles/ml plasma) Treated (leukocyte elastase; Time 60.0 min after intravenous 10 mg/kg): 2.50 picomoles/ml plasma | levels of the fibrinogen peptide produced in response to calcium ionophore A23187 after infusion (leukocyte elastase; treated chimpanzee, 10 mg/kg intravenous, in words): markedly lower levels | Cleavage Product Produced picomoles/ml (human leukocyte elastase; Elastase Inhibitor 1 mg/ml): 2.3 picomoles/ml | inhibition at 1000 µg/mL (human leukocyte elastase; Elastase Inhibitor 1 mg/ml, read-out: Percent Inhibition): 4% | Cleavage Product Produced picomoles/ml (human leukocyte elastase; Elastase Inhibitor 5 mg/ml): 1.6 picomoles/ml | Cleavage Product Produced picomoles/ml (human leukocyte elastase; Elastase Inhibitor 10 mg/ml): 1.6 picomoles/ml | Cleavage Product Produced picomoles/ml (human leukocyte elastase; Elastase Inhibitor 20 mg/ml): 1.5 picomoles/ml | Cleavage Product Produced picomoles/ml (human leukocyte elastase; Elastase Inhibitor 30 mg/ml): 1.2 picomoles/ml | Cleavage Product Produced picomoles/ml (human leukocyte elastase; Elastase Inhibitor 40 mg/ml): 0.8 picomoles/ml | Cleavage Product Produced picomoles/ml (human leukocyte elastase; Elastase Inhibitor 80 mg/ml): 0.4 picomoles/ml

CCCCCCCCCCCCCC(=O)O[C@@H]1[C@@H](C)[C@@]2(O)[C@@H](C=C(CO)C[C@]3(O)C(=O)C(C)=C[C@@H]23)[C@@H]2C(C)(C)[C@]12OC(C)=O [PMA, phorbol-12-myristate-13-acetate]
Aα 17-21 Epitope Containing Peptide Produced (picomoles/ml plasma) (whole human blood; PMA 0.003 mMolar, 25 minutes at 37°C): 0.0 picomoles/ml plasma | Aα 17-21 Epitope Containing Peptide Produced (picomoles/ml plasma) (whole human blood; PMA 0.010 mMolar): 0.3 picomoles/ml plasma | Aα 17-21 Epitope Containing Peptide Produced (picomoles/ml plasma) (whole human blood; PMA 0.03 mMolar): 0.3 picomoles/ml plasma | Aα 17-21 Epitope Containing Peptide Produced (picomoles/ml plasma) (whole human blood; PMA 0.10 mMolar): 0.4 picomoles/ml plasma | Aα 17-21 Epitope Containing Peptide Produced (picomoles/ml plasma) (whole human blood; PMA 0.30 mMolar): 0.9 picomoles/ml plasma | Aα 17-21 Epitope Containing Peptide Produced (picomoles/ml plasma) (whole human blood; PMA 1.0 mMolar): 1.5 picomoles/ml plasma | Aα 17-21 Epitope Containing Peptide Produced (picomoles/ml plasma) (whole human blood; PMA 3.0 mMolar): 2.6 picomoles/ml plasma | Aα 17-21 Epitope Containing Peptide Produced (picomoles/ml plasma) (whole human blood; PMA 10.0 mMolar): 3.0 picomoles/ml plasma | Aα 17-21 Epitope Containing Peptide Produced (picomoles/ml plasma) (whole human blood; PMA 20.0 mMolar): 3.7 picomoles/ml plasma
